Results: ChEMBL document CHEMBL5678818, “Discovery of potent SOS1 inhibitors that block RAS activation via disruption of the RAS-SOS1 interaction” (Proc Natl Acad Sci U S A, 2019)

Experiments:
[1] = biological target: Ephrin type-A receptor 2 (Homo sapiens) (UniProt P29317); experiment: Inhibition of EPHA2 (unknown origin) assessed as residual activity at 1000 nM by KINOMEscan analysis relative to control
[2] = system: Receptor-type tyrosine-protein kinase FLT3 (Homo sapiens), P36888 [N841I]; experiment: Inhibition of FLT3 N841I mutant (unknown origin) assessed as residual activity at 1000 nM by KINOMEscan analysis relative to control
[3] = biological target: T1, Serine/threonine-protein kinase Nek9 (Homo sapiens) (UniProt Q8TD19); experiment: Inhibition of NEK9 (unknown origin) assessed as residual activity at 1000 nM by KINOMEscan analysis relative to control
T1 sequence (whole entry): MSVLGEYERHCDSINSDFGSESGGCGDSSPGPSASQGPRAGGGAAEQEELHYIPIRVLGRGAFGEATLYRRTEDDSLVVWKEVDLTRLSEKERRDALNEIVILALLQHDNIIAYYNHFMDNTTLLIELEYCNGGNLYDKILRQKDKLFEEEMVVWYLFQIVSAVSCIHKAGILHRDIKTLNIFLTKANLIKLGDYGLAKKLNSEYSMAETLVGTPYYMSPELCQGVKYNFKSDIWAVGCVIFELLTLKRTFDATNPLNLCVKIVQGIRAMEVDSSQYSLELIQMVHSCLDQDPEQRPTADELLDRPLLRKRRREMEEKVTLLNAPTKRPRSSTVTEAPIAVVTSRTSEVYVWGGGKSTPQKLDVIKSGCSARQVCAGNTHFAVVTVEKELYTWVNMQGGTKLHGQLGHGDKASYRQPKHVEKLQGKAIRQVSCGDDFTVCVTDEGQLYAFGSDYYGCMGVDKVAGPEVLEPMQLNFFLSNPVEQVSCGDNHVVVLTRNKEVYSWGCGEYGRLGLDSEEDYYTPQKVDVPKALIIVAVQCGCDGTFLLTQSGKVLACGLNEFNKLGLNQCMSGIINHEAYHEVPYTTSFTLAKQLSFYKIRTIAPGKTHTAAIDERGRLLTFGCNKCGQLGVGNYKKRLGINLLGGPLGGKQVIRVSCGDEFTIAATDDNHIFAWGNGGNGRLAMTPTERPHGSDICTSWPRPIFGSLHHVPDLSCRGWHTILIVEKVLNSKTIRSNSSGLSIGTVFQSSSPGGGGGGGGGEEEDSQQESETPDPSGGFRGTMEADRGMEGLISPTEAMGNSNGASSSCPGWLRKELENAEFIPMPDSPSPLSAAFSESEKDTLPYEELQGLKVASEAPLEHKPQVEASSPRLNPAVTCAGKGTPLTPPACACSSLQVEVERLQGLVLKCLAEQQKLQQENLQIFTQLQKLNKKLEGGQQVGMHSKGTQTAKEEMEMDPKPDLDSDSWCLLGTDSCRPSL

[4] = biological target: Casein kinase I isoform epsilon (Homo sapiens) (UniProt P49674); experiment: Inhibition of CSNK1E (unknown origin) assessed as residual activity at 1000 nM by KINOMEscan analysis relative to control
[5] = biological target: T2, Membrane-associated tyrosine- and threonine-specific cdc2-inhibitory kinase (Homo sapiens) (UniProt Q99640); experiment: Inhibition of PKMYT1 (unknown origin) assessed as residual activity at 1000 nM by KINOMEscan analysis relative to control
T2 sequence (whole entry): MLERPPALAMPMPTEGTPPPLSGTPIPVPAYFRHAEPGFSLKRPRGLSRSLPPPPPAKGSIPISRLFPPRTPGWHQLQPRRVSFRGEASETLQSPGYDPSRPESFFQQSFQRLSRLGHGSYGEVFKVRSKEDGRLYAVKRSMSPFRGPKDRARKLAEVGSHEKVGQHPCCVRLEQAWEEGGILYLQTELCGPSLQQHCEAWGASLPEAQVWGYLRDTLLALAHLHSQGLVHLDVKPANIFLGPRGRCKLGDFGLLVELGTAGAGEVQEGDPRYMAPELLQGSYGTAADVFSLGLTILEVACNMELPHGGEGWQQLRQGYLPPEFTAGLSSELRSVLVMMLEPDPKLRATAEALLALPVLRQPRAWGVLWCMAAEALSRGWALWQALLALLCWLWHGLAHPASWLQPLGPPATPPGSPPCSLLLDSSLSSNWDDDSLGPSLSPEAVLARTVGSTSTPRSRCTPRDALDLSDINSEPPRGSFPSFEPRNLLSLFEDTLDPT

[6] = biological target: T3, Ankyrin repeat and protein kinase domain-containing protein 1 (Homo sapiens) (UniProt Q8NFD2); experiment: Inhibition of ANKK1 (unknown origin) assessed as residual activity at 1000 nM by KINOMEscan analysis relative to control
T3 sequence (whole entry): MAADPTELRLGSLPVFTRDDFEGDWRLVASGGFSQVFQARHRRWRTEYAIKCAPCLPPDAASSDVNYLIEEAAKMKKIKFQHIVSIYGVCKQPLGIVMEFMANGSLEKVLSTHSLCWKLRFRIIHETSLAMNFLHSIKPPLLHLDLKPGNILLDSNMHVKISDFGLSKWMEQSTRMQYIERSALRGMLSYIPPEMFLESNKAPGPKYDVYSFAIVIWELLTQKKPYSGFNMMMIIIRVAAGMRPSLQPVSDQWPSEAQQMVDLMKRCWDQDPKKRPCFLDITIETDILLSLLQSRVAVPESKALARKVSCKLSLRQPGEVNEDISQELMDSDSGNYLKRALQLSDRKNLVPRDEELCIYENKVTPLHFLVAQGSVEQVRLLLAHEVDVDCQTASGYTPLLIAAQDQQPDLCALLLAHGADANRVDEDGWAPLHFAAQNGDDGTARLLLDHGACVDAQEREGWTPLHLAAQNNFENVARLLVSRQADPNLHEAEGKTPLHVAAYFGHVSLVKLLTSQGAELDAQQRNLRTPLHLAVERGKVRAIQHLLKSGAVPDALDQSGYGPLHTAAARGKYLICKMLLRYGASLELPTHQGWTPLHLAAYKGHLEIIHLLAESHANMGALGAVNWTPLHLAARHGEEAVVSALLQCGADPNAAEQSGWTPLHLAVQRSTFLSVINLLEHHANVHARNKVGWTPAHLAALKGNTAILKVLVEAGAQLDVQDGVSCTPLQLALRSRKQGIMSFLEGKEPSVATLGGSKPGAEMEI

Sequence of Casein kinase I isoform epsilon (Homo sapiens) (P49674 whole entry, looked up, canonical isoform): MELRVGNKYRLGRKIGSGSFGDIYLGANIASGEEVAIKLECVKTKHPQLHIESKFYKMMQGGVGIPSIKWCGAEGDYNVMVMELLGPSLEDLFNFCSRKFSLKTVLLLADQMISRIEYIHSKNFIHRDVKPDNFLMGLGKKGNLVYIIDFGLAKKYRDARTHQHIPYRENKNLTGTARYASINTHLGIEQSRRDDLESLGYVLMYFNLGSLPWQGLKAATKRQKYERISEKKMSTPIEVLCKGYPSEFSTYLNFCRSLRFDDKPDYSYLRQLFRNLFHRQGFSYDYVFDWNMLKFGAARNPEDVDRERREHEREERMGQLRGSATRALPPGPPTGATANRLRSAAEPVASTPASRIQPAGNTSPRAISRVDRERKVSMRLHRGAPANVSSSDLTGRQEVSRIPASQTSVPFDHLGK
Sequence of Ephrin type-A receptor 2 (Homo sapiens) (P29317 whole entry): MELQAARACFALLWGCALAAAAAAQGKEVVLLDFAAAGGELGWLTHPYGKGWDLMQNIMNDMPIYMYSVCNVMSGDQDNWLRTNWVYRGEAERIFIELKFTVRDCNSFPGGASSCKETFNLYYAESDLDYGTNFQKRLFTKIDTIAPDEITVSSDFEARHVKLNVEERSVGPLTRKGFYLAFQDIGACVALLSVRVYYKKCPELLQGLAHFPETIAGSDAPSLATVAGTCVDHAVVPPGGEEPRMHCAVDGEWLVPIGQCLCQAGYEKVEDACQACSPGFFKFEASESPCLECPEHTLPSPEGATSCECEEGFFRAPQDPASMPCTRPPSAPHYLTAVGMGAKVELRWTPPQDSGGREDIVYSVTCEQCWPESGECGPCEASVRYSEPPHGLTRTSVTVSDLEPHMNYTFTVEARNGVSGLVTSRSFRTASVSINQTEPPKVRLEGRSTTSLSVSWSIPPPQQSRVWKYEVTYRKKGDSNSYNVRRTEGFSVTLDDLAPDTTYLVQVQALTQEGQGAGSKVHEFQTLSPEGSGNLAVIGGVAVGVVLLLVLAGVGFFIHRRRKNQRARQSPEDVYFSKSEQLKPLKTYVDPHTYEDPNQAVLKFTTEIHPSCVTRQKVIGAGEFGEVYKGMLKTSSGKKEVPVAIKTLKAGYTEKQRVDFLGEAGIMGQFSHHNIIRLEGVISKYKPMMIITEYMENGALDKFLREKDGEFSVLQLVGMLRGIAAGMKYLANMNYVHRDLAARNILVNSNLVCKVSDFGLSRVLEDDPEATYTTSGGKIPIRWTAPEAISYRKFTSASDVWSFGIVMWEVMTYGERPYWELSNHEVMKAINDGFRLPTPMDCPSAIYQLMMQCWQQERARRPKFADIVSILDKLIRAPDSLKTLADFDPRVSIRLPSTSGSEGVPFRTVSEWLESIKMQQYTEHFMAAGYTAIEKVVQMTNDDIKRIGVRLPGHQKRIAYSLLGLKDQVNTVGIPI

Row | Compound | Activity [1] | Activity [2] | Activity [3] | Activity [4] | Activity [5] | Activity [6]
1 | COc1cc2nc(C)nc(N[C@H](C)c3cccc(-c4cn[nH]c4)c3)c2cc1OC | 45% | 94% | 97% | 97% | 53% | 77%
2 | COc1cc2ncnc(N[C@H](C)c3cccc4ccccc34)c2cc1OC | 94% | 100% | 100% | 100% | 100% | 96%
